The source made the active and inactive calls. No cut-off for these calls is given here.
Key:
[1] = target: T1, Mitogen-activated protein kinase 14 (Homo sapiens, UniProt Q16539); experiment: Inhibition of p38alpha by immunosorbent based kinase assay
[2] = target: T1, Mitogen-activated protein kinase 14; experiment: Inhibition of p38alpha-dependent TNFalpha production in human whole blood
[3] = target: RAC-alpha serine/threonine-protein kinase (Homo sapiens) (UniProt P31749); experiment: Inhibition of AKT1 at 10 uM
[4] = target: T2, Serine/threonine-protein kinase PLK4 (Homo sapiens) (UniProt O00444); experiment: Inhibition of SAK at 10 uM
T2 sequence (whole entry): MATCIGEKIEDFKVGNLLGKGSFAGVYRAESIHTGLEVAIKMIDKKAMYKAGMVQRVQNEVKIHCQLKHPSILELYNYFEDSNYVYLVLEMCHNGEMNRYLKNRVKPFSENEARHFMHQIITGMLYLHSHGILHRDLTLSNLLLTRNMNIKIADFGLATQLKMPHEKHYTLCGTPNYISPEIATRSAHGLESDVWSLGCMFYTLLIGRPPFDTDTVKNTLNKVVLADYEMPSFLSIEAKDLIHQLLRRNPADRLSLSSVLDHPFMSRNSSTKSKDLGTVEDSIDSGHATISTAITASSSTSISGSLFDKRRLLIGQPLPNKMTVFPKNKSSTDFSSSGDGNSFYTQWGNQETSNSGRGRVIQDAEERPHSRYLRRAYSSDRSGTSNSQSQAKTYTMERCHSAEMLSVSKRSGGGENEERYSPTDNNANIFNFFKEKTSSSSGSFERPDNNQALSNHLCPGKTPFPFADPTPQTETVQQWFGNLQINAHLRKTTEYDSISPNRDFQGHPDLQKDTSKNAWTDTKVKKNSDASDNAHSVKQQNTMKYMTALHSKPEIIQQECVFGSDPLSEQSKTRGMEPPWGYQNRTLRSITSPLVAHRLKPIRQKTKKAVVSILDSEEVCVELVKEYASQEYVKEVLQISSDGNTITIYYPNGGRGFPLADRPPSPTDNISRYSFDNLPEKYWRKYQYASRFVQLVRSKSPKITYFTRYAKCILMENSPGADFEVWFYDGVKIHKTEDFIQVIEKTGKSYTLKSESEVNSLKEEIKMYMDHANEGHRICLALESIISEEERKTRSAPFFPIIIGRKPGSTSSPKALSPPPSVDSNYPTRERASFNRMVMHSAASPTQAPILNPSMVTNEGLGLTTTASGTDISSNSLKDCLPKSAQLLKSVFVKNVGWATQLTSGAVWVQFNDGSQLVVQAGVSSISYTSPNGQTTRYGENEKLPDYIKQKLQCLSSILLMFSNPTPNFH

[5] = target: T3, NUAK family SNF1-like kinase 1 (Homo sapiens) (UniProt O60285); experiment: Inhibition of ARK5 at 10 uM
T3 sequence (whole entry): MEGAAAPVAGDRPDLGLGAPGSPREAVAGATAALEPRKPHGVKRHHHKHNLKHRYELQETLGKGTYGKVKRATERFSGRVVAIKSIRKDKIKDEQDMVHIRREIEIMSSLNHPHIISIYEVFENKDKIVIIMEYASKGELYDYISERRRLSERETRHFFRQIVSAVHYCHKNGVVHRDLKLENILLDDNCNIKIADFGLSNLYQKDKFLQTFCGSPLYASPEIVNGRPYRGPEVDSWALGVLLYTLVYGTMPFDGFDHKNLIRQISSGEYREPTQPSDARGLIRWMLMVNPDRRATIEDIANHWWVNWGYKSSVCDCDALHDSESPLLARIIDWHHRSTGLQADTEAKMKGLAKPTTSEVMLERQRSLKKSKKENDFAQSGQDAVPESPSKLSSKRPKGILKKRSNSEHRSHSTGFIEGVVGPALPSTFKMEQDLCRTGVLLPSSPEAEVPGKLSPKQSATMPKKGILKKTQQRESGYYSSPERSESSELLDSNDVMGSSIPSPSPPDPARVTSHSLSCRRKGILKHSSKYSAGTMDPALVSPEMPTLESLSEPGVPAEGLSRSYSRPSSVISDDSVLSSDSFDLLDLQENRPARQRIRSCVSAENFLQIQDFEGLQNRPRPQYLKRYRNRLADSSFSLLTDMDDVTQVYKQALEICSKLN

[6] = target: BDNF/NT-3 growth factors receptor (Homo sapiens) (UniProt Q16620); experiment: Inhibition of TRKB at 10 uM
Sequence of BDNF/NT-3 growth factors receptor (Homo sapiens) (Q16620 32-822 limits assumed): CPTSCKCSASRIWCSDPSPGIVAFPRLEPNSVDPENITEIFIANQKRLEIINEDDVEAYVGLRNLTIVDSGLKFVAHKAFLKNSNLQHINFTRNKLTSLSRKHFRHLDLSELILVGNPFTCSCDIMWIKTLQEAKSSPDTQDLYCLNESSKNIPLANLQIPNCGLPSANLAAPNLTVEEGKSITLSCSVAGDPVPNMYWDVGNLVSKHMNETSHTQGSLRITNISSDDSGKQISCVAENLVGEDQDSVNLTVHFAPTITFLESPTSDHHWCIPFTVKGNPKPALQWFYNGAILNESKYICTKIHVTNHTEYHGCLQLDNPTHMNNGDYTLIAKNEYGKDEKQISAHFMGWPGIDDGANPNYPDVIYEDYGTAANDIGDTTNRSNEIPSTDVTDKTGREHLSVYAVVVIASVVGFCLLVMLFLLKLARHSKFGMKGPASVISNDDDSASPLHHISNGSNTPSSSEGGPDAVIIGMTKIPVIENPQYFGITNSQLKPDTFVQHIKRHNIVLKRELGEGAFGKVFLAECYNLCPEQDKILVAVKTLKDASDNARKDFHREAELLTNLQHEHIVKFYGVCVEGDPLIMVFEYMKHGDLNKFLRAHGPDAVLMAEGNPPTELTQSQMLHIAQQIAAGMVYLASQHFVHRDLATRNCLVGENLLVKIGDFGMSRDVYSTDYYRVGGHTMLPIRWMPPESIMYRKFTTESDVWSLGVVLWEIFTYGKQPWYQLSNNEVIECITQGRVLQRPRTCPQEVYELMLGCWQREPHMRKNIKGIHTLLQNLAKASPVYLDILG

[7] = target: Aurora kinase B (Homo sapiens) (UniProt Q96GD4); experiment: Inhibition of AuroraB at 10 uM
[8] = target: Proto-oncogene tyrosine-protein kinase Src (Homo sapiens) (UniProt P12931); experiment: Inhibition of SRC at 10 uM
Sequence of Proto-oncogene tyrosine-protein kinase Src (Homo sapiens) (P12931 2-536 limits assumed): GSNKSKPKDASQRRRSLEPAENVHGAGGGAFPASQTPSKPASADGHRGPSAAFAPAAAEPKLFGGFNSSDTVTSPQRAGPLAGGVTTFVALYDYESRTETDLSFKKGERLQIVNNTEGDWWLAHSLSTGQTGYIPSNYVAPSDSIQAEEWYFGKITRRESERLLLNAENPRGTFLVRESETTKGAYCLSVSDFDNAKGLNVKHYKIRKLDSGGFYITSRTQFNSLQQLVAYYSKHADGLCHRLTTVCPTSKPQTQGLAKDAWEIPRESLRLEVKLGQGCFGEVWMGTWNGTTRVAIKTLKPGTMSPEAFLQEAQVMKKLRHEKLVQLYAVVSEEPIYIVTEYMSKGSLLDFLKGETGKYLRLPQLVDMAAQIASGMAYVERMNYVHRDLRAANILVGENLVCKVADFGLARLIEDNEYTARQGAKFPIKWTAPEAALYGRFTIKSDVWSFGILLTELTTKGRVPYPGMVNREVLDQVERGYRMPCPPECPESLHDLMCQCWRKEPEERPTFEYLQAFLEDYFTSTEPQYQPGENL

[9] = test system: Serine/threonine-protein kinase B-raf (Homo sapiens), P15056 [V600E]; experiment: Inhibition of BRAF V600E mutant at 10 uM
[10] = target: Vascular endothelial growth factor receptor 2 (Homo sapiens) (UniProt P35968); experiment: Inhibition of VEGFR2 at 10 uM
[11] = target: Insulin receptor (Homo sapiens) (UniProt P06213); experiment: Inhibition of INSR at 10 uM
[12] = target: Insulin-like growth factor 1 receptor (Homo sapiens) (UniProt P08069); experiment: Inhibition of IGF1R at 10 uM
Sequence of Insulin-like growth factor 1 receptor (Homo sapiens) (P08069 31-736 limits assumed): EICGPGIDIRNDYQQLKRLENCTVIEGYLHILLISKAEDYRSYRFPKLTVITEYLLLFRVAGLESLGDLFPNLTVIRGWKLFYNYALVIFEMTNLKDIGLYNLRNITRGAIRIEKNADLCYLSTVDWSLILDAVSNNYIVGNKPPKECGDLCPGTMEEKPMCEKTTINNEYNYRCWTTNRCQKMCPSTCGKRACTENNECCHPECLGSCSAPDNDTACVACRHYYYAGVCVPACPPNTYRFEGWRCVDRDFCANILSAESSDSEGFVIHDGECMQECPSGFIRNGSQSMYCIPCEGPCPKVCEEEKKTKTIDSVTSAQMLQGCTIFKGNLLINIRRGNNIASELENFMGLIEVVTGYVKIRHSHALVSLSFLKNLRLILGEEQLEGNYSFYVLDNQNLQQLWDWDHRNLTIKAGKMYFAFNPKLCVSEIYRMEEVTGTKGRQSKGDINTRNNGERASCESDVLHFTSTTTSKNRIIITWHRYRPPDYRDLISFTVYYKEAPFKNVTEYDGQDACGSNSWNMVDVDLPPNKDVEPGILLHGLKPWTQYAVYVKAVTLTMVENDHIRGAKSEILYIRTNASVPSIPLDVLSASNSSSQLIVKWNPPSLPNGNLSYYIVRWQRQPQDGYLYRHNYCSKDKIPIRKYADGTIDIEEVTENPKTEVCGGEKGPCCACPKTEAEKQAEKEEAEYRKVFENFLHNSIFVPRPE
Sequence of Insulin-like growth factor 1 receptor (Homo sapiens) (P08069 741-1367 limits assumed): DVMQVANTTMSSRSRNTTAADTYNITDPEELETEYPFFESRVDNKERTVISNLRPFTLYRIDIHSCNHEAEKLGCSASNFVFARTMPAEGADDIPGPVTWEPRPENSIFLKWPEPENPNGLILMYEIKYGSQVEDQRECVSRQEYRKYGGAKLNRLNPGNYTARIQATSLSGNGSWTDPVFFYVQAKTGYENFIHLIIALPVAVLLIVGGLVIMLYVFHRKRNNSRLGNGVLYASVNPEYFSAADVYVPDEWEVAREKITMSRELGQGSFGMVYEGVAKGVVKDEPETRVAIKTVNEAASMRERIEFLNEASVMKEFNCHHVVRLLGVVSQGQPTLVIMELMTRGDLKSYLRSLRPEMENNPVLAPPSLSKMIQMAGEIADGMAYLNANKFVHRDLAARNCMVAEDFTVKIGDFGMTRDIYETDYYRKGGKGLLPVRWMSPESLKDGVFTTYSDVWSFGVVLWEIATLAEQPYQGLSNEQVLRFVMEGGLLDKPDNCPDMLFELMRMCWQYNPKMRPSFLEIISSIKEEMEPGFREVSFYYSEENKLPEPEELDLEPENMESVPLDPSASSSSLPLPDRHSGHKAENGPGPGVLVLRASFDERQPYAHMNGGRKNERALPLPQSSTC

[13] = target: Hepatocyte growth factor receptor (Homo sapiens) (UniProt P08581); experiment: Inhibition of MET at 10 uM
Sequence of Hepatocyte growth factor receptor (Homo sapiens) (P08581 whole entry): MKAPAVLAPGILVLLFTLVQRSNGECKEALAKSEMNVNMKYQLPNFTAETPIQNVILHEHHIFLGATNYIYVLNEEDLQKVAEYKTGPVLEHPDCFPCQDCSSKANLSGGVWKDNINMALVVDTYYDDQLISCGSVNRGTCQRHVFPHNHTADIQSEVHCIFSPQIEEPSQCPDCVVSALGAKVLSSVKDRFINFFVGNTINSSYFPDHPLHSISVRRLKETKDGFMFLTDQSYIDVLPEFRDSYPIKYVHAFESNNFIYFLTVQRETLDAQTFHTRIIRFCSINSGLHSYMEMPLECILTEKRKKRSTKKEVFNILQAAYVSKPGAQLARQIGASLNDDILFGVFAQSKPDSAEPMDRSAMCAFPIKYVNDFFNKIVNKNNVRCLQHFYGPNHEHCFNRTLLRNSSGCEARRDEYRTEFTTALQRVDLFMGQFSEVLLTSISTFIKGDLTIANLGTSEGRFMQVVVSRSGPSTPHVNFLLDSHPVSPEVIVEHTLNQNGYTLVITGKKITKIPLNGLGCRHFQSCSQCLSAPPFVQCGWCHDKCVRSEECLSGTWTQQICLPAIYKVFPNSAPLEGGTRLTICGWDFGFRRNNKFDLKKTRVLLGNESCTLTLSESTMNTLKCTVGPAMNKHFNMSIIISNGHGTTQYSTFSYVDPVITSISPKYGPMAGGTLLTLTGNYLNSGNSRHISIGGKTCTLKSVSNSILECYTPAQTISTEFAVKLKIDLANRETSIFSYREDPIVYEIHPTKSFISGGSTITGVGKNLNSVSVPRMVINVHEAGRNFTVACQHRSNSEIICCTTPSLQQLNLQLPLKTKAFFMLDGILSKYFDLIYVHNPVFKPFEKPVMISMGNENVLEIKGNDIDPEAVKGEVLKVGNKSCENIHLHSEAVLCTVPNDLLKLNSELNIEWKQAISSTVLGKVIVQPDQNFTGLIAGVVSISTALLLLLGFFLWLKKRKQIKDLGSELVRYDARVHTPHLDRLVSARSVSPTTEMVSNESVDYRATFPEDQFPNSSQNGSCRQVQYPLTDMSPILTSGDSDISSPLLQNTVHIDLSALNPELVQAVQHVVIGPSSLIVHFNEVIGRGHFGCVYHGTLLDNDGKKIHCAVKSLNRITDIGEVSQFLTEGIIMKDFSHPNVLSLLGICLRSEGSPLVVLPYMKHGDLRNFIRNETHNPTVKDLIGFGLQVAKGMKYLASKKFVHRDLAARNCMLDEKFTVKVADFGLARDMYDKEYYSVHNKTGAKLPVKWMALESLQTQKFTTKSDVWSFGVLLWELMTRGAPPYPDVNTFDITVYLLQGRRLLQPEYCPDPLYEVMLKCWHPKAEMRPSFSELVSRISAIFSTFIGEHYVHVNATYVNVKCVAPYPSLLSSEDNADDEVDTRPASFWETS

[14] = target: Focal adhesion kinase 1 (Homo sapiens) (UniProt Q05397); experiment: Inhibition of FAK at 10 uM
[15] = target: Serine/threonine-protein kinase PLK1 (Homo sapiens) (UniProt P53350); experiment: Inhibition of PLK1 at 10 uM
Sequence of Serine/threonine-protein kinase PLK1 (Homo sapiens) (P53350 whole entry): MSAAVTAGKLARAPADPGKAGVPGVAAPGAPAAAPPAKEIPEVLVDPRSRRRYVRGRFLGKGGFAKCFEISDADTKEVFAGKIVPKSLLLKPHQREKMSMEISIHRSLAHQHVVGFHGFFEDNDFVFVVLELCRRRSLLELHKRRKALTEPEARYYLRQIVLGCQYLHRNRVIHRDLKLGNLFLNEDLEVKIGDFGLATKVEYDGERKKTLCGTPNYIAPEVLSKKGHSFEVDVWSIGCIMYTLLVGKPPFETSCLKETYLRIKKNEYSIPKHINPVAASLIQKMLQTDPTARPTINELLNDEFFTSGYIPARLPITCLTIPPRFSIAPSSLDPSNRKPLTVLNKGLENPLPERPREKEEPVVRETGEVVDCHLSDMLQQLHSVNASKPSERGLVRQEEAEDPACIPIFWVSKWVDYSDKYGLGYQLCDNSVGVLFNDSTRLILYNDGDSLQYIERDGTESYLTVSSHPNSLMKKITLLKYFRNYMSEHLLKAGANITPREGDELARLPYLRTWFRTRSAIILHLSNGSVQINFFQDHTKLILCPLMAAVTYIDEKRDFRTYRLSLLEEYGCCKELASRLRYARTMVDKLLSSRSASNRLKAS

[16] = target: Tyrosine-protein kinase receptor UFO (Homo sapiens) (UniProt P30530); experiment: Inhibition of AXL at 10 uM
[17] = target: Serine/threonine-protein kinase N1 (Homo sapiens) (UniProt Q16512); experiment: Inhibition of PRK1 at 10 uM
[18] = target: Casein kinase II subunit alpha (Homo sapiens) (UniProt P68400); experiment: Inhibition of CK2alpha1 at 10 uM

T1 sequence (Q16539 whole entry): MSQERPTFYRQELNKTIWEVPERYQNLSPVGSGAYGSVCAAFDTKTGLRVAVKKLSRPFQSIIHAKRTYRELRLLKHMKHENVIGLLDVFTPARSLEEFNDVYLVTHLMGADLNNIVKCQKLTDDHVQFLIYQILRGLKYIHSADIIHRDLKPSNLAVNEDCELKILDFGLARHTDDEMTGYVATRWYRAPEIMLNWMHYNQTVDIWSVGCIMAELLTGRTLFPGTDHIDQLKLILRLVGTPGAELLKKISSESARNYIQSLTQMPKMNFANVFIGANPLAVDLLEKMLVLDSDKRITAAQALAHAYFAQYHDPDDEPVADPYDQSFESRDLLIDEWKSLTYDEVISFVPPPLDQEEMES

| IC50 [1] [nM] | IC50 [2] [nM] | inhibition [3] | inhibition [4] | inhibition [5] | inhibition [6] | inhibition [7] | inhibition [8] | inhibition [9] | inhibition [10] | inhibition [11] | inhibition [12] | inhibition [13] | inhibition [14] | inhibition [15] | inhibition [16] | inhibition [17] | inhibition [18] | Compound |
| --- | --- | --- | --- | --- | --- | --- | --- | --- | --- | --- | --- | --- | --- | --- | --- | --- | --- | --- |
| 20 | 80 | inactive | inactive | inactive | inactive | inactive | inactive | inactive | inactive | inactive | inactive | inactive | inactive | inactive | inactive | inactive | inactive | Nc1ccccc1Nc1ccc2c(c1)CCc1ccc(OC[C@H](O)CO)cc1C2=O |
| 1040 | 158000 | inactive | inactive | inactive | inactive | inactive | inactive | inactive | inactive | inactive | inactive | inactive | inactive | inactive | inactive | inactive | inactive | CC1(C)OC[C@H](COc2cccc3c2CCc2cc(Nc4ccccc4N)ccc2C3=O)O1 |
| 30 | 10400 | inactive | inactive | inactive | inactive | inactive | inactive | inactive | inactive | inactive | inactive | inactive | inactive | inactive | inactive | inactive | inactive | O=C1c2ccc(Nc3ccc(F)cc3F)cc2CCc2cc(OC[C@H](O)CO)ccc21 |
| 40 | 5400 | inactive | inactive | inactive | inactive | inactive | inactive | inactive | inactive | inactive | inactive | inactive | inactive | inactive | inactive | inactive | inactive | COc1ccc2c(c1)C(=O)c1ccc(Nc3ccc(F)cc3Cl)cc1CC2 |
| 8 | 80 | inactive | inactive | inactive | inactive | inactive | inactive | inactive | inactive | inactive | inactive | inactive | inactive | inactive | inactive | inactive | inactive | O=C1c2ccc(Nc3ccc(F)cc3F)cc2CCc2ccc(OCCCN3CCOCC3)cc21 |
| 40 | 1900 | inactive | inactive | inactive | inactive | inactive | inactive | inactive | inactive | inactive | inactive | inactive | inactive | inactive | inactive | inactive | inactive | COc1ccc2c(c1)C(=O)c1ccc(Nc3ccc(F)c(C)c3)cc1CC2 |

Reference: ChEMBL document CHEMBL2150974 (J Med Chem, 2012)
